In US20260014153A1, “ELACESTRANT IN COMBINATION WITH ABEMACICLIB IN WOMEN WITH BREAST CANCER” (RADIUS PHARMACEUTICALS, INC., priority 2018, published 2026):

Experiments:
[1] = system: tumors expressing wild-type ERα; experiment: growth of tumors expressing wild-type ERα; format: in vivo
[2] = system: tumors expressing Y537S ERα; experiment: growth of tumors expressing mutant ERα; format: in vivo
breast cancer tumor = experiment: animal xenograft model of breast cancer; settings: in vivo
[3] = system: brain metastasis xenograft; experiment: brain metastasis xenograft model; settings: in vivo
[4] = bone loss in ovariectomized rats; format: in vivo
uterine tissues = experiment: estradiol stimulation of uterine tissues in ovariectomized rats; format: in vivo
[5] = standardized uptake value in tissues not significantly expressing ER; format: in vivo, human; settings: 200 mg or up to 500 mg q.d.; uterus, muscle, bone tissues not significantly expressing ER
[6] = half life after PO dosing; format: in vivo; settings: humans
[7] = biological target: T1, ER in the uterus and pituitary (Homo sapiens, UniProt P03372); experiment: estradiol binding to ER by FES-PET imaging; format: in vivo; settings: uterine and pituitary tissue
T1 construct: from tissue; host or cells: uterus and pituitary, in vivo
T1 sequence (P03372 1-595): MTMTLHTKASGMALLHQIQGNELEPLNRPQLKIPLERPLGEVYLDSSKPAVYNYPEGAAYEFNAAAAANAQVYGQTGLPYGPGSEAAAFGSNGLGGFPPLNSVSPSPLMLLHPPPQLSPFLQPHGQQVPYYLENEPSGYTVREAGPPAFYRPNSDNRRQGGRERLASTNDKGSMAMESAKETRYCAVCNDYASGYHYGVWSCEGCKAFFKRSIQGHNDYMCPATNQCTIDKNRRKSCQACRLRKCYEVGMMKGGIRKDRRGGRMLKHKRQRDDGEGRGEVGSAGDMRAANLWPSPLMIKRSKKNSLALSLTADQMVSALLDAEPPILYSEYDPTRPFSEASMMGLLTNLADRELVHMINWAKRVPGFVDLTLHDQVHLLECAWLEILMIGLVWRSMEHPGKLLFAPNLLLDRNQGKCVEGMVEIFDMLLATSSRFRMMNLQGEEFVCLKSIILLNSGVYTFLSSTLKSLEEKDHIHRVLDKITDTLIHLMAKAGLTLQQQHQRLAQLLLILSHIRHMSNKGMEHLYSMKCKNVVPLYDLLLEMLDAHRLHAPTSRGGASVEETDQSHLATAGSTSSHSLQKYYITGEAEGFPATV
Experimental: In these experiments, estradiol binding to ER in uterine and pituitary tissue was evaluated by FES-PET imaging.

[8] = system: ER+ breast cancer with both wild-type and mutant ESR1; settings: models of ER+ breast cancer, single agent and in combination with a CDK4/6 inhibitor; cited from earlier work
ER+ breast cancer = settings: monotherapy; models including fulvestrant-insensitive, estrogen-independent and/or ESR1-mutant; cited from earlier work
ERα = biological target: T2, ERα (Homo sapiens, UniProt P03372); settings: cited from earlier work
T2 sequence (P03372 1-595): T1 sequence (P03372 1-595)

Structure (SMILES): CCNCCc1ccc(CN(CC)c2cc(OC)ccc2[C@@H]2CCc3cc(O)ccc3C2)cc1 [RAD1901]
- inhibition of tumor growth [1]: inhibit tumor growth
- inhibition of tumor growth [2]: unexpected ability to inhibit the growth of tumors
- accumulation within tumor cells (breast cancer tumor): significant accumulation
- breast cancer tumor growth (breast cancer tumor): inhibiting breast cancer tumor growth
- blood-brain barrier penetration [3]: capable of penetrating the blood-brain barrier
- survival [3]: significantly prolonged survival
- bone loss [4]: protects against bone loss
- estradiol stimulation of uterine tissues (uterine tissues): antagonized estradiol stimulation
- change in standardized uptake value (SUV) pre- and post-treatment [5]: hardly any changes
- half life [6]: surprisingly long half life
- observed level of ER binding after treatment [7]: at or below background levels
- inhibition of tumor growth [8]: effective in inhibiting tumor growth
- antitumor activity (ER+ breast cancer): demonstrated antitumor activity
- binding preference ERα versus ERβ (ERα): preferentially bind ERα
